# Results as given in patent US20260265244A1, “HETEROCYCLIC COMPOUNDS AS STING ANTAGONISTS” (Boehringer Ingelheim International GmbH, priority 2022, published 2026).
# Molecular target: T1, cGAMP binding domain of wild-type (GRR) human STING, residues 155-341 (Homo sapiens, UniProt Q86WV6, H232R)
# T1 construct: His-TEV-hSTING (WT); TEV protease cleavage site (N); made in house; host or cells: E. coli BL21 DE3
# Test: Increase of stability of STING protein against thermal denaturation, Differential Scanning Fluorimetry (DSF)
# How it was run: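 3 µM His-tagged protein with 100 uM compound, 5×SYPRO Orange, 2% DMSO in 20 mM Tris, 150 mM NaCl, pH7.5; 15–95 °C ramp in 0.5 °C steps (15 s/cycle). Tm from Boltzmann fit of the dye melt curve, duplicates averaged, repeated if SD>1.5 °C; ΔTm = Tm with compound minus Tm of protein alone.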
# T1 sequence (Q86WV6 with tags, fused parts or gaps H232R): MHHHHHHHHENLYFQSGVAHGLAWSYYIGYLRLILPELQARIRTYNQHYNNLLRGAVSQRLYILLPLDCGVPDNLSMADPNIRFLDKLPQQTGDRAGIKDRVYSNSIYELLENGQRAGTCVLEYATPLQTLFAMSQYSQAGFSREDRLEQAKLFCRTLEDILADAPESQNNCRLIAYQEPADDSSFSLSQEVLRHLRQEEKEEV
row,DSF,SMILES
1,29 K,"Cc1c(C(C)C)c(-c2cccc3nn(C[C@H](O)c4ccccc4)cc23)nn1-c1cc2cn(C)nc2nc1C(C)O (stereo partly drawn) [Example 19, (1R)-2-(4-{1-[6-(1-hydroxyethyl)-2-methyl-2H-pyrazolo[3,4-b]pyridin-5-yl]-5-methyl-4-(propan-2-yl)-1H-pyrazol-3-yl}-2H-indazol-2-yl)-1-phenylethan-1-ol]"
2,25 K,"CCO[C@@H](Cn1cc2c(-c3nn(-c4cc5cn(C)nc5nc4C)c(C)c3C(C)C)cccc2n1)c1ccccc1 [Example 30, 4-(1-{2,6-dimethyl-2H-pyrazolo[3,4-b]pyridin-5-yl}-5-methyl-4-(propan-2-yl)-1H-pyrazol-3-yl)-2-[(2R)-2-ethoxy-2-phenylethyl]-2H-indazole]"
3,22 K,"Cc1nc2nn(C)cc2cc1-n1nc(-c2cccc3nn(C[C@H](OCC4CC4)c4ccccc4)cc23)c(C(C)C)c1C [Example 63, 2-[(2R)-2-(cyclopropylmethoxy)-2-phenylethyl]-4-(1-{2,6-dimethyl-2H-pyrazolo[3,4-b]pyridin-5-yl}-5-methyl-4-(propan-2-yl)-1H-pyrazol-3-yl)-2H-indazole]"
4,27 K,"Cc1nc2nn(CCCCN3CCN(C)CC3)cc2cc1-n1nc(-c2cccc3nn(C[C@H](O)c4ccccc4)cc23)c(C(C)C)c1C [Example 45, (1R)-2-[4-(5-methyl-1-{6-methyl-2-[4-(4-methylpiperazin-1-yl)butyl]-2H-pyrazolo[3,4-b]pyridin-5-yl}-4-(propan-2-yl)-1H-pyrazol-3-yl)-2H-indazol-2-yl]-1-phenylethan-1-ol]"
5,24 K,"Cc1nc2nn(C)cc2cc1-n1nc(-c2cccc3nn(C[C@H](OCCO)c4ccccc4)cc23)c(C(C)C)c1C [Example 8, 2-[(1R)-2-[4-(1-{2,6-dimethyl-2H-pyrazolo[3,4-b]pyridin-5-yl}-5-methyl-4-(propan-2-yl)-1H-pyrazol-3-yl)-2H-indazol-2-yl]-1-phenylethoxy]ethan-1-ol]"
6,25 K,"Cc1nc2nn(CCN(C)C)cc2cc1-n1nc(-c2cccc3nn(C[C@H](O)c4ccccc4)cc23)c(C(C)C)c1C [Example 39, (1R)-2-[4-(1-{2-[2-(dimethylamino)ethyl]-6-methyl-2H-pyrazolo[3,4-b]pyridin-5-yl}-5-methyl-4-(propan-2-yl)-1H-pyrazol-3-yl)-2H-indazol-2-yl]-1-phenylethan-1-ol]"
7,30 K,"Cc1nc2nn(Cc3cnn(C)c3)cc2cc1-n1nc(-c2cccc3nn(C[C@H](O)c4ccccc4)cc23)c(C(C)C)c1C [Example 24, (1R)-2-[4-(5-methyl-1-{6-methyl-2-[(1-methyl-1H-pyrazol-4-yl)methyl]-2H-pyrazolo[3,4-b]pyridin-5-yl}-4-(propan-2-yl)-1H-pyrazol-3-yl)-2H-indazol-2-yl]-1-phenylethan-1-ol]"
8,33 K,"CC(C)c1nc2nn(C)cc2cc1-c1nc(-c2cccc3nn(C[S@@+]([O-])c4ccccc4)cc23)c(C2CC2)n1C [Example 22, 2-{[(S)-benzenesulfinyl]methyl}-4-{5-cyclopropyl-1-methyl-2-[2-methyl-6-(propan-2-yl)-2H-pyrazolo[3,4-b]pyridin-5-yl]-1H-imidazol-4-yl}-2H-indazole]"
9,30 K,"Cc1c(C(C)C)c(-c2cccc3nn(C[C@H](O)c4ccc(OCCN5CCOCC5)cc4)cc23)nn1-c1cc2cn(C)nc2nc1C1CC1 [Example 15, (1R)-2-[4-(1-{6-cyclopropyl-2-methyl-2H-pyrazolo[3,4-b]pyridin-5-yl}-5-methyl-4-(propan-2-yl)-1H-pyrazol-3-yl)-2H-indazol-2-yl]-1-{4-[2-(morpholin-4-yl)ethoxy]phenyl}ethan-1-ol]"
10,23 K,Cc1c(C(C)C)c(-c2cccc3nn(C[C@H](O)c4ccccc4)cc23)nn1-c1cc2cn(C)nc2nc1CN(C)C [Example 112]
11,27 K,"Cc1nc2nn(CCO)cc2cc1-n1nc(-c2cccc3nn(C[C@H](O)c4ccccc4)cc23)c(C(C)C)c1C [Example 37, (1R)-2-(4-{1-[2-(2-hydroxyethyl)-6-methyl-2H-pyrazolo[3,4-b]pyridin-5-yl]-5-methyl-4-(propan-2-yl)-1H-pyrazol-3-yl}-2H-indazol-2-yl)-1-phenylethan-1-ol]"
12,28 K,"CCCc1nc2nn(C)cc2cc1-n1nc(-c2cccc3nn(C[C@H](O)c4ccccc4)cc23)c(C(C)C)c1C [Example 60, (1R)-2-[4-(5-methyl-1-{2-methyl-6-propyl-2H-pyrazolo[3,4-b]pyridin-5-yl}-4-(propan-2-yl)-1H-pyrazol-3-yl)-2H-indazol-2-yl]-1-phenylethan-1-ol]"
13,25 K,"CO[C@@H](Cn1cc2c(-c3nn(-c4cc5cn(C)nc5nc4C)c(C)c3C(C)C)cccc2n1)c1ccccc1 [Example 52, 4-(1-{2,6-dimethyl-2H-pyrazolo[3,4-b]pyridin-5-yl}-5-methyl-4-(propan-2-yl)-1H-pyrazol-3-yl)-2-[(2R)-2-methoxy-2-phenylethyl]-2H-indazole]"
14,31 K,"CCc1nc2nn(C)cc2cc1-c1nc(-c2cccc3nn(C[C@H](F)c4ccccc4)cc23)c(C2CC2)n1C [Example 107, 4-(5-cyclopropyl-2-{6-ethyl-2-methyl-2H-pyrazolo[3,4-b]pyridin-5-yl}-1-methyl-1H-imidazol-4-yl)-2-[(2R)-2-fluoro-2-phenylethyl]-2H-indazole]"
15,26 K,"CNCc1nc2nn(C)cc2cc1-n1nc(-c2cccc3nn(C[C@H](O)c4ccccc4)cc23)c(C(C)C)c1C [Example 42, (1R)-2-[4-(5-methyl-1-{2-methyl-6-[(methylamino)methyl]-2H-pyrazolo[3,4-b]pyridin-5-yl}-4-(propan-2-yl)-1H-pyrazol-3-yl)-2H-indazol-2-yl]-1-phenylethan-1-ol]"
16,24 K,"CNC(=O)CO[C@@H](Cn1cc2c(-c3nn(-c4cc5cn(C)nc5nc4C)c(C)c3C(C)C)cccc2n1)c1ccccc1 [Example 36, 2-[(1R)-2-[4-(1-{2,6-dimethyl-2H-pyrazolo[3,4-b]pyridin-5-yl)-5-methyl-4-(propan-2-yl)-1H-pyrazol-3-yl)-2H-indazol-2-yl]-1-phenylethoxy]-N-methylacetamide]"
17,30 K,"Cc1c(C(C)C)c(-c2cccc3nn(C[C@H](O)c4ccccc4)cc23)nn1-c1cc2cn(C)nc2nc1C1CCC1 [Example 53, (1R)-2-[4-(1-{6-cyclobutyl-2-methyl-2H-pyrazolo[3,4-b]pyridin-5-yl}-5-methyl-4-(propan-2-yl)-1H-pyrazol-3-yl)-2H-indazol-2-yl]-1-phenylethan-1-ol]"
18,24 K,"Cc1c(C(C)C)c(-c2cccc3nn(C[C@H](O)c4ccccc4)cc23)nn1-c1cc2cn(C)nc2nc1C1CCCN1 (stereo partly drawn) [Example 111, (1R)-2-(4-{5-Methyl-1-[2-methyl-6-(pyrrolidin-2-yl)-2H-pyrazolo[3,4-b]pyridin-5-yl]-4-(propan-2-yl)-1H-pyrazol-3-yl}-2H-indazol-2-yl)-1-phenylethan-1-ol]"
19,26 K,"Cc1nc2nn(C)cc2cc1-n1nc(-c2cccc3nn(CCc4ccc(OCCN(C)C)cc4)cc23)c(C(C)C)c1C [Example 65, [2-(4-{2-[4-(1-{2,6-dimethyl-2H-pyrazolo[3,4-b]pyridin-5-yl}-5-methyl-4-(propan-2-yl)-1H-pyrazol-3-yl)-2H-indazol-2-yl]ethyl}phenoxy)ethyl]dimethylamine]"
20,28 K,"Cc1c(C(C)C)c(-c2cccc3nn(C[C@H](O)c4ccccc4)cc23)nn1-c1cc2cn(C)nc2nc1CO [Example 106, (1R)-2-(4-{1-[6-(hydroxymethyl)-2-methyl-2H-pyrazolo[3,4-b]pyridin-5-yl]-5-methyl-4-(propan-2-yl)-1H-pyrazol-3-yl}-2H-indazol-2-yl)-1-phenylethan-1-ol]"
21,30 K,"CCc1nc2nn(C)cc2cc1-c1nc(-c2cccc3nn(C[C@H](F)c4ccc(Cl)cc4)cc23)c(C2CC2)n1C [Example 72, 2-[(2R)-2-(4-chlorophenyl)-2-fluoroethyl]-4-(5-cyclopropyl-2-{6-ethyl-2-methyl-2H-pyrazolo[3,4-b]pyridin-5-yl}-1-methyl-1H-imidazol-4-yl)-2H-indazole]"
22,28 K,"Cc1nc2nn(CCCC#N)cc2cc1-n1nc(-c2cccc3nn(C[C@H](O)c4ccccc4)cc23)c(C(C)C)c1C [Example 2, 4-[5-(3-{2-[(2R)-2-hydroxy-2-phenylethyl]-2H-indazol-4-yl}-5-methyl-4-(propan-2-yl)-1H-pyrazol-1-yl)-6-methyl-2H-pyrazolo[3,4-b]pyridin-2-yl]butanenitrile]"
23,26 K,"Cc1c(C(C)C)c(-c2cccc3nn(C[C@H](O)c4ccccc4)cc23)nn1-c1cc2cn(C)nc2nc1C1(F)CC1 [Example 51, (1R)-2-(4-{1-[6-(1-fluorocyclopropyl)-2-methyl-2H-pyrazolo[3,4-b]pyridin-5-yl]-5-methyl-4-(propan-2-yl)-1H-pyrazol-3-yl}-2H-indazol-2-yl)-1-phenylethan-1-ol]"
